Reference: patent US12428415B2, “Matriptase 2 inhibitors and uses thereof” (Disc Medicine, Inc., priority 2018, dated 2025)

What follows are compounds tested against T1, Human Recombinant Matriptase 2 (Homo sapiens, UniProt Q8IU80) (assay: Matriptase 2 fluorescence based inhibition assay, Method B (50 mM TRIS pH 7.5, 150 mM NaCl, 0.01% gelatin)). Conditions: 1 uM compound; Assay Used = B (Method B).
T1 construct: purchased Enzo Life Sciences (an in-house preparation was also used) ALX-201-752-1
T1 sequence (Q8IU80 1-811): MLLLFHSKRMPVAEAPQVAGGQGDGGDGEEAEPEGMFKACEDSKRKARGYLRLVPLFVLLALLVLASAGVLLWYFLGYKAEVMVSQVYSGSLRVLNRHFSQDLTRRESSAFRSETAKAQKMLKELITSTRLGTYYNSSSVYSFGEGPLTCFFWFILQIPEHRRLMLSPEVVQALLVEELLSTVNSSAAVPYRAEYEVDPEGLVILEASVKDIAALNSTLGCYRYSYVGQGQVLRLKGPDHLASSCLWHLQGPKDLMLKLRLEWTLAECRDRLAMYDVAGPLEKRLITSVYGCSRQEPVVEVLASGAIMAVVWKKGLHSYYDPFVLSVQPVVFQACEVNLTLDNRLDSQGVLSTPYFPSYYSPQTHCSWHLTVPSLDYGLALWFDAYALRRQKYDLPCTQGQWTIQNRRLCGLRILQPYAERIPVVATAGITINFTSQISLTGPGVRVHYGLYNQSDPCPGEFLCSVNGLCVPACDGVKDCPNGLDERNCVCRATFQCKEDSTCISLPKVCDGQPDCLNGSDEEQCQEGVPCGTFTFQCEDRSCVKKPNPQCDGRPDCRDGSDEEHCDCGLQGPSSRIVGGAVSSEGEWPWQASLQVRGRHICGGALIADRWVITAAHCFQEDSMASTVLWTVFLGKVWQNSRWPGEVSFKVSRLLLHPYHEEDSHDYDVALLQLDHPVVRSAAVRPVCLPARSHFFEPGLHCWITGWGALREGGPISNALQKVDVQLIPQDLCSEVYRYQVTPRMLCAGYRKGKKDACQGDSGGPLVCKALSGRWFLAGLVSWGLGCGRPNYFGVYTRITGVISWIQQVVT
Format: biochemical
How it was run: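 Fluorogenic substrate Boc-Gln-Ala-Arg-7-amido-4-methylcoumarin (100 μM) cleavage read at Ex 360/Em 480 nm 60 min after addition, following 30 min enzyme–compound preincubation at 25° C. Enzyme was 7 nM commercial or 15 nM in-house; DMSO 1%. IC50s fitted by non-linear sigmoidal regression.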

Q: Which “Mar-2 % inhibition at 1 uM” value does the source give for `N=C(N)c1ccc2cc(NC(=O)[C@H]3CC[C@H](N)CC3)n(Cc3cccc4ccccc34)c2c1` [Compound I-671] here?
A: C (C represents 50%≤I≤75%)

Q: Which “Mar-2 % inhibition at 1 uM” value does the source give for `N=C(N)c1ccc2cc(C(=O)N[C@H]3CC[C@H](N)CC3)n(Cc3cncc4ccccc34)c2c1` [Compound I-687] here?
A: C (C represents 50%≤I≤75%)

Same assay, conditions: 1 uM compound; Assay Used = B (Method B); read-out: Mar-2 % inhibition at 1 uM

Q: For `N=C(N)c1ccc2cc(C(=O)O)n(Cc3cccc4ccc(Oc5ccccc5)cc34)c2c1` [Compound I-680], which inhibition at 1 µM is on record?
A: 25 to 50%

Q: Which inhibition at 1 µM does the source give for `Cc1ccc(S(=O)(=O)Oc2cc(Cn3c(C(=O)O)cc4ccc(C(=N)N)cc43)c3ccccc3c2)cc1` [Compound I-647] here?
A: 75 to 100%

Q: For `N=C(N)c1ccc2cc(C(=O)N[C@H]3CC[C@H](NC(N)=O)CC3)n(Cc3cccc4ccccc34)c2c1` [Compound I-736], which inhibition at 1 µM is on record?
A: 50 to 75%

Q: For `N=C(N)c1ccc2cc(C(=O)O)n(Cc3cc(Oc4ccccn4)cc4ccccc34)c2c1` [Compound I-628], which inhibition at 1 µM is on record?
A: 75 to 100%

Q: For `CC(C)(C)S(=O)(=O)c1cccc2c(Cn3c(C(=O)N[C@H]4CC[C@H](N)CC4)cc4ccc(C(=N)N)cc43)cccc12` [Compound I-742], which inhibition at 1 µM is on record?
A: 50 to 75%

Q: With `COC(=O)NCCOC(=O)c1cc2ccc(C(=N)N)cc2n1Cc1cccc2ccccc12` [Compound I-602] as the compound, how does the inhibition at 1 µM read?
A: 50 to 75%

Q: How did the inhibition at 1 µM turn out when `N=C(N)c1ccc2cc(C(=O)N[C@H]3CC[C@H](N)CC3)n(Cc3cc(Oc4ccc(-c5ccccc5)cc4)cc4ccccc34)c2c1` [Compound I-715] was run?
A: 0 to 25%

Q: How did the inhibition at 1 µM turn out when `N=C(N)c1ccc2cc(C(=O)N[C@H]3CC[C@H](Nc4ncccn4)CC3)n(Cc3cccc4ccccc34)c2c1` [Compound I-741] was run?
A: 50 to 75%

Q: For `N=C(N)c1ccc2cc(C(=O)O)n(Cc3cc(Oc4cccnc4)cc4ccccc34)c2c1` [Compound I-626], which inhibition at 1 µM is on record?
A: 25 to 50%

Q: With `COc1cccc(Oc2cc(Cn3c(C(=O)O)cc4ccc(C(=N)N)cc43)c3ccccc3c2)c1` [Compound I-686] as the compound, how does the inhibition at 1 µM read?
A: 50 to 75%

Q: Which inhibition at 1 µM does the source give for `COC(=O)N[C@H]1CC[C@H](NC(=O)c2cc3ccc(C(=N)N)cc3n2Cc2cccc3ccccc23)CC1` [Compound I-735] here?
A: 25 to 50%

Q: `N=C(N)c1ccc2cc(C(=O)O)n(Cc3cccc4c(COCc5ccccc5)cccc34)c2c1` [Compound I-672] was tested. Which inhibition at 1 µM did it give?
A: 75 to 100%

Q: With `N=C(N)c1ccc2cc(C(=O)NCCN)n(Cc3cc(Oc4ccccc4)cc4ccccc34)c2c1` [Compound I-634] as the compound, how does the inhibition at 1 µM read?
A: 75 to 100%

Q: Which inhibition at 1 µM does the source give for `Cc1cnc(-c2cc3ccc(C(=N)N)cc3n2Cc2cccc3ccccc23)[nH]1` [Compound I-714] here?
A: 75 to 100%

Q: With `CCOC(=O)c1cc2ccc(C(N)=NO)cc2n1Cc1cc(Oc2ccccc2)cc2ccccc12` [Compound I-663] as the compound, how does the inhibition at 1 µM read?
A: 0 to 25%

Q: For `CCOC(=O)c1cc2ccc(C(=N)N)cc2n1Cc1cc(Oc2ccccc2)cc2ccccc12` [Compound I-662], which inhibition at 1 µM is on record?
A: 25 to 50%

Q: `CC(C)(C)OC(=O)Nc1cc2ccc(C(=N)N)cc2n1Cc1cc(S(=O)(=O)c2ccccc2)cc2ccccc12` [Compound I-603, tert-butyl (6-carbamimidoyl-1-((3-(phenylsulfonyl)naphthalen-1-yl)methyl)-1H-indol-2-yl)carbamate] was tested. Which inhibition at 1 µM did it give?
A: 25 to 50%

Q: Which inhibition at 1 µM does the source give for `N=C(N)c1ccc2cc(C(=O)O)n(Cc3cc(Oc4ccccc4Cl)cc4ccccc34)c2c1` [Compound I-661] here?
A: 25 to 50%

Q: Which inhibition at 1 µM does the source give for `N=C(N)c1ccc2cc(C(=O)O)n(Cc3cc(Nc4ccccc4)cc4ccccc34)c2c1` [Compound I-656] here?
A: 50 to 75%

Q: With `N=C(N)c1ccc2cc(C(=O)N[C@H]3CC[C@H](N)CC3)n(Cc3ccc(Br)c4ccccc34)c2c1` [Compound I-794] as the compound, how does the inhibition at 1 µM read?
A: 75 to 100%

Q: `N=C(N)c1ccc2cc(C(=O)N[C@H]3CC[C@H](N)CC3)n(Cc3cc(Oc4ccccc4F)cc4ccccc34)c2c1` [Compound I-615] was tested. Which inhibition at 1 µM did it give?
A: 75 to 100%

Q: For `NCc1ccc2cc(C(=O)N[C@H]3CC[C@H](N)CC3)n(Cc3cc(S(=O)(=O)c4ccccc4)cc4ccccc34)c2c1` [Compound I-636], which inhibition at 1 µM is on record?
A: 25 to 50%

Q: With `CO/N=C(\N)c1ccc2c(c1)c(Cc1cccc3ccccc13)c(C(=O)O)n2C` [Compound I-684] as the compound, how does the inhibition at 1 µM read?
A: 0 to 25%

Q: With `N=C(N)c1ccc2cc(C(=O)O)n(-c3ccc4ccccc4c3)c2c1` [Compound I-654] as the compound, how does the inhibition at 1 µM read?
A: 0 to 25%

Same assay, conditions: 1 uM compound; Assay Used = B; read-out: Mar-2 % inhibition at 1 uM

Q: For `CNC(=N)c1ccc2cc(C(=O)N[C@H]3CC[C@H](N)CC3)n(Cc3ccc4ccccc4c3)c2c1` [Compound I-414], which inhibition at 1 µM is on record?
A: 0 to 25%

Q: `N=C(N)c1ccc2cc(C(=O)N[C@H]3CC[C@H](N)CC3)n(Cc3ccc(C(N)=O)cc3)c2c1` [Compound I-500] was tested. Which inhibition at 1 µM did it give?
A: 25 to 50%

Q: How did the inhibition at 1 µM turn out when `N=C(N)c1ccc2cc(C(=O)Nc3ncccn3)n(Cc3cccc4ccccc34)c2c1` [Compound I-573, 6-carbamimidoyl-1-(naphthalen-1-ylmethyl)-N-(pyrimidin-2-yl)-1H-indole-2-carboxamide] was run?
A: 50 to 75%

Q: Which inhibition at 1 µM does the source give for `N=C(N)c1ccc2c(C(N)=O)c(C(=O)N[C@H]3CC[C@H](N)CC3)n(Cc3cccc4ccccc34)c2c1` [Compound I-513, N2-((1r,4r)-4-aminocyclohexyl)-6-carbamimidoyl-1-(naphthalen-1-ylmethyl)-1H-indole-2,3-dicarboxamide] here?
A: 25 to 50%

Q: Which inhibition at 1 µM does the source give for `CS(=O)(=O)Nc1cc(Cn2c(C(=O)O)cc3ccc(C(=N)N)cc32)c2ccccc2c1` [Compound I-546] here?
A: 75 to 100%

Q: For `N=C(N)c1ccc2cc(C(=O)N[C@H]3CC[C@H](N)CC3)n(Cc3cc(Cl)cc(Cl)c3)c2c1` [Compound I-505], which inhibition at 1 µM is on record?
A: 25 to 50%

Q: With `N=C(N)c1ccc2cc(C(=O)N[C@H]3CC[C@H](N)CC3)n(CCc3cccc4ccccc34)c2c1` [Compound I-409] as the compound, how does the inhibition at 1 µM read?
A: 25 to 50%

Q: How did the inhibition at 1 µM turn out when `COC(=O)NCCOC(=O)c1cc2ccc(C(=N)N)cc2n1Cc1cc(Oc2ncccn2)cc2ccccc12` [Compound I-583] was run?
A: 75 to 100%

Q: For `N=C(N)c1ccc2cc(C(=O)Nc3cccc(-c4ncc[nH]4)c3)n(Cc3cccc4ccccc34)c2c1` [Compound I-448], which inhibition at 1 µM is on record?
A: 25 to 50%

Q: With `CN[C@H]1CC[C@H](NC(=O)c2cc3ccc(C(=N)N)cc3n2Cc2cccc3ccccc23)CC1` [Compound I-472] as the compound, how does the inhibition at 1 µM read?
A: 75 to 100%

Q: Which inhibition at 1 µM does the source give for `COC(=O)c1cc2ccc(C(=N)N)cc2n1Cc1cccc2ccccc12` [Compound I-486, Methyl 6-carbamimidoyl-1-(naphthalen-1-ylmethyl)-1H-indole-2-carboxylate] here?
A: 25 to 50%

Q: Which inhibition at 1 µM does the source give for `CC(C)COC(=O)NC(=N)c1ccc2cc(C(=O)OCc3ccccc3)n(Cc3cc(Oc4ncccn4)cc4ccccc34)c2c1` [Compound I-581] here?
A: 25 to 50%

Q: With `N=C(N)c1ccc2cc(C(=O)N[C@H]3CC[C@H](N)CC3)n(Cc3ccc(C(=O)O)c4ccccc34)c2c1` [Compound I-508] as the compound, how does the inhibition at 1 µM read?
A: 25 to 50%

Q: For `N=C(N)c1ccc2cc(C(=O)O)n(Cc3cc(Oc4nccs4)cc4ccccc34)c2c1` [Compound I-589], which inhibition at 1 µM is on record?
A: 75 to 100%

Q: For `N=C(N)c1ccc2cc(C(=O)N[C@H]3CC[C@H](N)CC3)n(C(C(=O)O)c3cccc4ccccc34)c2c1` (some centres unmarked) [Compound I-502], which inhibition at 1 µM is on record?
A: 0 to 25%

Q: With `CCOC(=O)c1cc2ccc(C(=N)N)cc2n1Cc1cc(Oc2ccsc2)cc2ccccc12` [Compound I-592] as the compound, how does the inhibition at 1 µM read?
A: 0 to 25%

Q: With `N=C(N)c1ccc2cc(C(=O)N[C@H]3CC[C@H](N)CC3)n(Cc3c(Cl)cccc3Cl)c2c1` [Compound I-503] as the compound, how does the inhibition at 1 µM read?
A: 0 to 25%

Q: How did the inhibition at 1 µM turn out when `CNC(=O)c1cc2ccc(C(=N)N)cc2n1Cc1cc(Oc2ncccn2)cc2ccccc12` [Compound I-578] was run?
A: 75 to 100%

Q: `CC(C)(C)OC(=O)NC(=N)c1ccc2cc(C(=O)N3CCCN(C(=O)OC(C)(C)C)CC3)n(Cc3cccc4ccccc34)c2c1` [Compound I-423] was tested. Which inhibition at 1 µM did it give?
A: 0 to 25%

Q: Which inhibition at 1 µM does the source give for `CC(C)COC(=O)NC(=N)c1ccc2cc(C(=O)O)n(Cc3cc(Oc4ncccn4)cc4ccccc34)c2c1` [Compound I-595] here?
A: 25 to 50%

Same assay, conditions: compound at 1 uM; Assay Used: B; read-out: Mar-2 % inhibition at 1 uM

Q: How did the inhibition at 1 µM turn out when `N=C(N)c1ccc2cc(C(=O)N[C@H]3CC[C@H](N)CC3)n(Cc3cccc4sccc34)c2c1` [Compound I-823] was run?
A: 50 to 75%

Q: How did the inhibition at 1 µM turn out when `N=C(N)c1ccc2cc(C(=O)NC3CCNC[C@@H]3F)n(Cc3cccc4ccccc34)c2c1` (some centres unmarked) [Compound I-816] was run?
A: 75 to 100%

Q: Which inhibition at 1 µM does the source give for `N=C(N)c1ccc2cc(C(=O)N[C@H]3CC[C@H](N)CC3)n(Cc3cccc4sc(C(=O)O)cc34)c2c1` [Compound I-815, 4-((2-(((1r,4r)-4-aminocyclohexyl)carbamoyl)-6-carbamimidoyl-1H-indol-1-yl)methyl) benzo[b]thiophene-2-carboxylic Acid] here?
A: 50 to 75%

Q: With `CNCCCOc1ccc2c(Cn3c(C(=O)O)cc4ccc(C(=N)N)cc43)cccc2c1` [Compound I-801, 6-carbamimidoyl-1-((6-(3-(methylamino)propoxy)naphthalen-1-yl)methyl)-1H-indole-2-carboxylic Acid] as the compound, how does the inhibition at 1 µM read?
A: 50 to 75%
